US12440431B2, “Cosmetic comprising ultraviolet wavelength conversion substance” (Shiseido Company, Ltd., priority 2019, dated 2025)

How the values were obtained:
Human dermal fibroblasts [1] = assay: Restoration of cell activity decreased by prior UV irradiation (AlamarBlue); assay type: cell-based; settings: pre-irradiation 400 mJ/cm^2 without substance, then UV 0-200 mJ/cm^2 through 0.4% or 2% C-phycocyanin (equivalent effect), FIG. 5
Experimental: (§1) 1. Human dermal fibroblasts and human skin keratinocytes purchased from Kurabo Industries Ltd. were used. A cell suspension (1 mL) stored in liquid nitrogen was thawed in a water bath (37° C.) to an extent that small ice pellets remained, and then diluted with 9 mL of warm medium. 2. The diluted suspension was mixed gently and then transferred to a T75 flask and incubated overnight at 37° C. 3. The next day, the medium was replaced with 10 mL of fresh medium. 4. The medium was replaced periodically (once every 2 days for fibroblasts and once every 2 to 3 days for keratinocytes) and cell proliferation was continued. Meanwhile, the cells were observed using a microscope, and it was confirmed that the cells grew in the correct form. 5. After the cells reached about 80% confluence, the cells were passaged. The cells were passaged by washing the cells once with 10 mL of warm PBS, adding 5 mL of warm trypsin to a T75 flask, covering the bottom of the flask with a trypsin solution, followed by aspirating at room temperature for 1 minute. 6. The flask was allowed to stand in an oven at 37° C. for (maximum) 2 minutes for fibroblasts and (maximum) 7 minutes for keratinocytes. The cells were observed using a microscope and confirmed to be small and oval. 7. Thereafter, the side of the T75 flask was lightly tapped to release the cells. […]

Human dermal fibroblasts [2] = assay: Cell activity (AlamarBlue) of cells irradiated with UV through a UV wavelength conversion substance solution; assay type: cell-based; settings: UV dose 0-100 mJ/cm^2, FIG. 3
Experimental: The UV wavelength conversion substances (1) and (2) were dissolved in water to prepare solutions having a concentration of 1% or 5%.
The UV wavelength conversion substances (3) and (4) were dispersed in alcohol to prepare 5% and 10% dispersions.
as §1, with “6.” for “6. The flask was allowed to stand in an oven at 37° C. for (maximum) 2 minutes for fibroblasts and (maximum) 7 minutes for keratinocytes. The cells were observed using a microscope and confirmed to be small and oval. 7. Thereafter, the side of the T75 flask was lightly tapped to release the cells.”

Substance: C-phycocyanin
- cell activity (relative fluorescence intensity) after prior decrease by UV (Human dermal fibroblasts [1]): cell activity was recovered
- cell activity (relative fluorescence intensity) (Human dermal fibroblasts [2]; 0.4% C-phycocyanin solution): the decrease in cell activity was suppressed
- cell activity (relative fluorescence intensity) (Human dermal fibroblasts [2]; 2% C-phycocyanin solution): the cell activity was even increased compared to the case where UV irradiation was not carried out
